Values after ≈ are worked out from the molar mass of the structure shown.
Experiments:
Format in all cases: functional
Streptococcus pneumoniae [1] = test: Antibacterial activity against Streptococcus pneumoniae 07P390 harboring c-erm gene incubated for 16 to 20 hrs by CLSI based broth microdilution method; conditions: time 16-20 hrs
Staphylococcus aureus [2] = test: Selectivity ratio of MBC for methicillin-resistant Staphylococcus aureus PU 32 harboring i-ermA gene to MIC for methicillin-resistant Staphylococcus aureus PU 32 harboring i-ermA gene
Streptococcus pneumoniae [3] = test: Selectivity ratio of MBC for Streptococcus pneumoniae 07P390 harboring c-erm gene to MIC for Streptococcus pneumoniae 07P390 harboring c-erm gene
Staphylococcus aureus [4] = test: Bactericidal activity against methicillin-resistant Staphylococcus aureus PU 20 harboring c-ermA gene incubated for 16 to 20 hrs by CLSI based broth microdilution method; conditions: time 16-20 hrs
Streptococcus pyogenes [5] = test: Antibacterial activity against Streptococcus pyogenes 01-968 harboring i-ermB gene incubated for 16 to 20 hrs by CLSI based broth microdilution method; conditions: time 16-20 hrs
Streptococcus pneumoniae [6] = test: Selectivity ratio of MBC for Streptococcus pneumoniae PU 09 harboring mef gene to MIC for Streptococcus pneumoniae PU 09 harboring mef gene
Staphylococcus aureus [7] = test: Antibacterial activity against methicillin-resistant Staphylococcus aureus PU 20 harboring c-ermA gene incubated for 16 to 20 hrs by CLSI based broth microdilution method; conditions: time 16-20 hrs
Streptococcus pneumoniae [8] = test: Antibacterial activity against Streptococcus pneumoniae ATCC 49619 incubated for 16 to 20 hrs by CLSI based broth microdilution method; conditions: time 16-20 hrs
Streptococcus pyogenes [9] = test: Bactericidal activity against Streptococcus pyogenes 01-968 harboring i-ermB gene incubated for 16 to 20 hrs by CLSI based broth microdilution method; conditions: time 16-20 hrs
Streptococcus pyogenes [10] = test: Selectivity ratio of MBC for Streptococcus pyogenes 01-968 harboring i-ermB gene to MIC for Streptococcus pyogenes 01-968 harboring i-ermB gene
Haemophilus influenzae [11] = test: Selectivity ratio of MBC for Haemophilus influenzae ATCC 49247 to MIC for Haemophilus influenzae ATCC 49247
Staphylococcus aureus [12] = test: Bactericidal activity against methicillin-resistant Staphylococcus aureus PU 32 harboring i-ermA gene incubated for 16 to 20 hrs by CLSI based broth microdilution method; conditions: time 16-20 hrs
Haemophilus influenzae [13] = test: Bactericidal activity against Haemophilus influenzae ATCC 49247 incubated for 16 to 20 hrs by CLSI based broth microdilution method; conditions: time 16-20 hrs
Streptococcus pneumoniae [14] = test: Bactericidal activity against Streptococcus pneumoniae ATCC 49619 incubated for 16 to 20 hrs by CLSI based broth microdilution method; conditions: time 16-20 hrs
Staphylococcus aureus [15] = test: Antibacterial activity against methicillin-resistant Staphylococcus aureus PU 32 harboring i-ermA gene incubated for 16 to 20 hrs by CLSI based broth microdilution method; conditions: time 16-20 hrs
Streptococcus pneumoniae [16] = test: Selectivity ratio of MBC for Streptococcus pneumoniae ATCC 49619 to MIC for Streptococcus pneumoniae ATCC 49619
Haemophilus influenzae [17] = test: Antibacterial activity against Haemophilus influenzae ATCC 49247 incubated for 16 to 20 hrs by CLSI based broth microdilution method; conditions: time 16-20 hrs
Streptococcus pneumoniae [18] = test: Bactericidal activity against Streptococcus pneumoniae 07P390 harboring c-erm gene incubated for 16 to 20 hrs by CLSI based broth microdilution method; conditions: time 16-20 hrs
Streptococcus pneumoniae [19] = test: Antibacterial activity against Streptococcus pneumoniae PU 09 harboring mef gene incubated for 16 to 20 hrs by CLSI based broth microdilution method; conditions: time 16-20 hrs
Streptococcus pneumoniae [20] = test: Bactericidal activity against Streptococcus pneumoniae PU 09 harboring mef gene incubated for 16 to 20 hrs by CLSI based broth microdilution method; conditions: time 16-20 hrs

Row | SMILES | MIC (Streptococcus pneumoniae [1]) | Selectivity ratio (Staphylococcus aureus [2]) | Selectivity ratio (Streptococcus pneumoniae [3]) | MBC (Staphylococcus aureus [4]) | MIC (Streptococcus pyogenes [5]) | Selectivity ratio (Streptococcus pneumoniae [6]) | MIC (Staphylococcus aureus [7]) | MIC (Streptococcus pneumoniae [8]) | MBC (Streptococcus pyogenes [9]) | Selectivity ratio (Streptococcus pyogenes [10]) | Selectivity ratio (Haemophilus influenzae [11]) | MBC (Staphylococcus aureus [12]) | MBC (Haemophilus influenzae [13]) | MBC (Streptococcus pneumoniae [14]) | MIC (Staphylococcus aureus [15]) | Selectivity ratio (Streptococcus pneumoniae [16]) | MIC (Haemophilus influenzae [17]) | MBC (Streptococcus pneumoniae [18]) | MIC (Streptococcus pneumoniae [19]) | MBC (Streptococcus pneumoniae [20])
1 | CC[C@H]1OC(=O)[C@H](C)[C@@H](OC(=O)CCNCCCCCCCNc2cc3c(cc2F)c(=O)c(C(=O)O)cn3C2CC2)[C@H](C)[C@@H](O[C@@H]2O[C@H](C)C[C@H](N(C)C)[C@H]2O)[C@](C)(OC)C[C@@H](C)/C(=N\OC)[C@H](C)[C@H]2OC(=O)O[C@@]21C | 8 µg/mL (≈ 7.45 µM) | 8 | 2 | > 256 µg/mL | 0.016 µg/mL (≈ 0.0149 µM) | 1 | 128 µg/mL (≈ 119 µM) | 0.125 µg/mL (≈ 0.116 µM) | 0.125 µg/mL (≈ 0.116 µM) | 8 | 1 | 16 µg/mL (≈ 14.9 µM) | 256 µg/mL (≈ 238 µM) | 0.25 µg/mL (≈ 0.233 µM) | 2 µg/mL (≈ 1.86 µM) | 2 | 256 µg/mL (≈ 238 µM) | 16 µg/mL (≈ 14.9 µM) | 2 µg/mL (≈ 1.86 µM) | 2 µg/mL (≈ 1.86 µM)
2 | CC[C@H]1OC(=O)[C@H](C)[C@@H](OC(=O)CCN2CCN(c3nc4c(cc3F)c(=O)c(C(=O)O)cn4CC)CC2)[C@H](C)[C@@H](O[C@@H]2O[C@H](C)C[C@H](N(C)C)[C@H]2O)[C@](C)(OC)C[C@@H](C)/C(=N\OCC#Cc2cncc(C(=O)NC)c2)[C@H](C)[C@H]2OC(=O)O[C@@]21C | 4 µg/mL (≈ 3.4 µM) | >4 | >8 | > 256 µg/mL | 4 µg/mL (≈ 3.4 µM) | 4 | > 256 µg/mL | 0.03 µg/mL (≈ 0.0255 µM) | > 32 µg/mL | >8 | 1 | > 256 µg/mL | 32 µg/mL (≈ 27.2 µM) | 0.03 µg/mL (≈ 0.0255 µM) | 64 µg/mL (≈ 54.4 µM) | 1 | 32 µg/mL (≈ 27.2 µM) | > 32 µg/mL | 0.06 µg/mL (≈ 0.051 µM) | 0.25 µg/mL (≈ 0.212 µM)
3 | CC[C@H]1OC(=O)[C@H](C)[C@@H](OC(=O)CCNCCCCNc2cc3c(cc2F)c(=O)c(C(=O)O)cn3C2CC2)[C@H](C)[C@@H](O[C@@H]2O[C@H](C)C[C@H](N(C)C)[C@H]2O)[C@](C)(OC)C[C@@H](C)/C(=N\OC/C=C/c2cncc(C(N)=O)c2)[C@H](C)[C@H]2OC(=O)O[C@@]21C | 0.12 µg/mL (≈ 0.102 µM) | 1 | 2 | > 256 µg/mL | 0.25 µg/mL (≈ 0.212 µM) | – | > 256 µg/mL | ≤ 0.008 µg/mL | > 2 µg/mL | >8 | 1 | 32 µg/mL (≈ 27.2 µM) | 16 µg/mL (≈ 13.6 µM) | 0.008 µg/mL (≈ 0.00679 µM) | 32 µg/mL (≈ 27.2 µM) | >=1 | 16 µg/mL (≈ 13.6 µM) | 0.25 µg/mL (≈ 0.212 µM) | ≤ 0.008 µg/mL | 0.008 µg/mL (≈ 0.00679 µM)
4 | CC[C@H]1OC(=O)[C@H](C)[C@@H](OC(=O)CCN2CCN(c3cc4c(cc3F)c(=O)c(C(=O)O)cn4C3CC3)CC2)[C@H](C)[C@@H](O[C@@H]2O[C@H](C)C[C@H](N(C)C)[C@H]2O)[C@](C)(OC)C[C@@H](C)/C(=N\OCC#Cc2cncc(C(N)=O)c2)[C@H](C)[C@H]2OC(=O)O[C@@]21C | 4 µg/mL (≈ 3.41 µM) | >8 | >8 | – | 0.5 µg/mL (≈ 0.426 µM) | 2 | > 256 µg/mL | 0.25 µg/mL (≈ 0.213 µM) | 1 µg/mL (≈ 0.852 µM) | 2 | 1 | > 64 µg/mL | 8 µg/mL (≈ 6.81 µM) | 0.5 µg/mL (≈ 0.426 µM) | 8 µg/mL (≈ 6.81 µM) | 2 | 8 µg/mL (≈ 6.81 µM) | > 32 µg/mL | 0.5 µg/mL (≈ 0.426 µM) | 1 µg/mL (≈ 0.852 µM)
5 | CC[C@H]1OC(=O)[C@H](C)[C@@H](OC(=O)CCNCCCCNc2cc3c(cc2F)c(=O)c(C(=O)O)cn3C2CC2)[C@H](C)[C@@H](O[C@@H]2O[C@H](C)C[C@H](N(C)C)[C@H]2O)[C@](C)(OC)C[C@@H](C)/C(=N\OCC#Cc2cncc(C(N)=O)c2)[C@H](C)[C@H]2OC(=O)O[C@@]21C | 0.06 µg/mL (≈ 0.051 µM) | 2 | >8 | > 256 µg/mL | 0.06 µg/mL (≈ 0.051 µM) | – | 128 µg/mL (≈ 109 µM) | ≤ 0.008 µg/mL | > 0.5 µg/mL | >8 | 1 | 128 µg/mL (≈ 109 µM) | 2 µg/mL (≈ 1.7 µM) | 0.008 µg/mL (≈ 0.0068 µM) | 64 µg/mL (≈ 54.4 µM) | >=1 | 2 µg/mL (≈ 1.7 µM) | > 0.5 µg/mL | ≤ 0.008 µg/mL | 0.008 µg/mL (≈ 0.0068 µM)
6 | CC[C@H]1OC(=O)[C@H](C)[C@@H](OC(=O)CCN2CCN(c3cc4c(cc3F)c(=O)c(C(=O)O)cn4CC)CC2)[C@H](C)[C@@H](O[C@@H]2O[C@H](C)C[C@H](N(C)C)[C@H]2O)[C@](C)(OC)C[C@@H](C)/C(=N\OCC#Cc2cncc(C(=O)NC)c2)[C@H](C)[C@H]2OC(=O)O[C@@]21C | 8 µg/mL (≈ 6.8 µM) | >4 | >8 | > 256 µg/mL | 16 µg/mL (≈ 13.6 µM) | 8 | > 256 µg/mL | 0.12 µg/mL (≈ 0.102 µM) | > 128 µg/mL | >8 | 1 | > 256 µg/mL | 16 µg/mL (≈ 13.6 µM) | 0.12 µg/mL (≈ 0.102 µM) | 64 µg/mL (≈ 54.4 µM) | 1 | 16 µg/mL (≈ 13.6 µM) | > 64 µg/mL | 0.12 µg/mL (≈ 0.102 µM) | 1 µg/mL (≈ 0.85 µM)
7 | CC[C@H]1OC(=O)[C@H](C)C(=O)[C@H](C)[C@@H](O[C@@H]2O[C@H](C)C[C@H](N(C)C)[C@H]2O)[C@](C)(OC)C[C@@H](C)C(=O)[C@H](C)[C@H]2N(CCCCn3cnc(-c4cccnc4)c3)C(=O)O[C@]12C [TELITHROMYCIN] | 0.125 µg/mL (≈ 0.154 µM) | 4 | 8 | – | 0.031 µg/mL (≈ 0.0382 µM) | 8 | > 256 µg/mL | 0.031 µg/mL (≈ 0.0382 µM) | 0.125 µg/mL (≈ 0.154 µM) | 4 | – | 1 µg/mL (≈ 1.23 µM) | – | 0.125 µg/mL (≈ 0.154 µM) | – | 4 | – | 1 µg/mL (≈ 1.23 µM) | 0.5 µg/mL (≈ 0.616 µM) | 4 µg/mL (≈ 4.93 µM)
8 | CC[C@H]1OC(=O)[C@H](C)[C@@H](OC(=O)CCNCCCCNc2cc3c(cc2F)c(=O)c(C(=O)O)cn3C2CC2)[C@H](C)[C@@H](O[C@@H]2O[C@H](C)C[C@H](N(C)C)[C@H]2O)[C@](C)(OC)C[C@@H](C)/C(=N\OCC#Cc2cncc(C(=O)NC3CC3)c2)[C@H](C)[C@H]2OC(=O)O[C@@]21C | 0.03 µg/mL (≈ 0.0247 µM) | 2 | >8 | > 256 µg/mL | 0.06 µg/mL (≈ 0.0493 µM) | – | 128 µg/mL (≈ 105 µM) | ≤ 0.008 µg/mL | > 0.5 µg/mL | >8 | 1 | 64 µg/mL (≈ 52.6 µM) | 8 µg/mL (≈ 6.58 µM) | 0.008 µg/mL (≈ 0.00658 µM) | 32 µg/mL (≈ 26.3 µM) | >=1 | 8 µg/mL (≈ 6.58 µM) | > 0.25 µg/mL | ≤ 0.008 µg/mL | 0.008 µg/mL (≈ 0.00658 µM)
